In PubChem BioAssay (NCI):
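1) Cells in 96-well plates. 2) Compound, 48 h, 5 concentrations. 3) Linear interpolation between surrounding doses. 4) Unreached endpoint = highest concentration. TGI is the concentration that stops growth completely.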

Assays:
Assay in all cases: DTP human tumour cell line panel, 48 h
786-0 renal = system: 786-0 renal
A498 renal = system: A498 renal
A549 NSCLC = system: A549 NSCLC
ACHN renal = system: ACHN renal
BT-549 breast = system: BT-549 breast
CAKI-1 renal = system: CAKI-1 renal
CCRF-CEM leukemia = system: CCRF-CEM leukemia
COLO 205 colon = system: COLO 205 colon
DU-145 prostate = system: DU-145 prostate
EKVX NSCLC = system: EKVX NSCLC
HCC-2998 colon = system: HCC-2998 colon
HCT-116 colon = system: HCT-116 colon
HCT-15 colon = system: HCT-15 colon
HL-60(TB) leukemia = system: HL-60(TB) leukemia
HOP-62 NSCLC = system: HOP-62 NSCLC
HOP-92 NSCLC = system: HOP-92 NSCLC
K-562 leukemia = system: K-562 leukemia
KM12 colon = system: KM12 colon
LOX IMVI melanoma = system: LOX IMVI melanoma
M14 melanoma = system: M14 melanoma
MCF7 breast = system: MCF7 breast
MDA-MB-231 breast = system: MDA-MB-231 breast
MDA-MB-435 = system: MDA-MB-435
MDA-N = system: MDA-N
MOLT-4 leukemia = system: MOLT-4 leukemia
NCI-H226 lung = system: NCI-H226 lung
NCI-H23 lung = system: NCI-H23 lung
NCI-H460 lung = system: NCI-H460 lung
NCI/ADR-RES ovarian = system: NCI/ADR-RES ovarian
OVCAR-3 ovarian = system: OVCAR-3 ovarian
OVCAR-4 ovarian = system: OVCAR-4 ovarian
OVCAR-5 ovarian = system: OVCAR-5 ovarian
OVCAR-8 ovarian = system: OVCAR-8 ovarian
PC-3 prostate = system: PC-3 prostate
RPMI-8226 leukemia = system: RPMI-8226 leukemia
RXF 393 renal = system: RXF 393 renal
SF-268 CNS = system: SF-268 CNS
SF-295 CNS = system: SF-295 CNS
SF-539 CNS = system: SF-539 CNS
SK-MEL-28 melanoma = system: SK-MEL-28 melanoma
SK-MEL-5 melanoma = system: SK-MEL-5 melanoma
SK-OV-3 ovarian = system: SK-OV-3 ovarian
SN12C renal = system: SN12C renal
SNB-19 CNS = system: SNB-19 CNS
SNB-75 CNS = system: SNB-75 CNS
SW-620 colon = system: SW-620 colon
T-47D breast = system: T-47D breast
TK-10 renal = system: TK-10 renal
U251 CNS = system: U251 CNS
UACC-257 melanoma = system: UACC-257 melanoma
UACC-62 melanoma = system: UACC-62 melanoma
UO-31 renal = system: UO-31 renal
HT29 colon = system: HT29 colon
IGROV1 ovarian = system: IGROV1 ovarian
MALME-3M melanoma = system: MALME-3M melanoma
NCI-H522 lung = system: NCI-H522 lung
SK-MEL-2 melanoma = system: SK-MEL-2 melanoma
SR leukemia = system: SR leukemia

COc1ccccc1N=C1SCCN1C(=S)Nc1ccc(S(=O)(=O)/N=C/N(C)C)cc1
TGI (786-0 renal): > 100 µM
TGI (A498 renal): > 100 µM
TGI (A549 NSCLC): > 100 µM
TGI (ACHN renal): > 100 µM
TGI (BT-549 breast): 49.8 µM
TGI (CAKI-1 renal): > 100 µM
TGI (CCRF-CEM leukemia): > 100 µM
TGI (COLO 205 colon): > 100 µM
TGI (DU-145 prostate): > 100 µM
TGI (EKVX NSCLC): 63.2 µM
TGI (HCC-2998 colon): > 100 µM
TGI (HCT-116 colon): > 100 µM
TGI (HCT-15 colon): > 100 µM
TGI (HL-60(TB) leukemia): > 100 µM
TGI (HOP-62 NSCLC): > 100 µM
TGI (HOP-92 NSCLC): > 100 µM
TGI (K-562 leukemia): > 100 µM
TGI (KM12 colon): > 100 µM
TGI (LOX IMVI melanoma): > 100 µM
TGI (M14 melanoma): > 100 µM
TGI (MCF7 breast): 83.7 µM
TGI (MDA-MB-231 breast): > 100 µM
TGI (MDA-MB-435): 76.9 µM
TGI (MDA-N): > 100 µM
TGI (MOLT-4 leukemia): > 100 µM
TGI (NCI-H226 lung): > 100 µM
TGI (NCI-H23 lung): 95.9 µM
TGI (NCI-H460 lung): > 100 µM
TGI (NCI/ADR-RES ovarian): > 100 µM
TGI (OVCAR-3 ovarian): > 100 µM
TGI (OVCAR-4 ovarian): > 100 µM
TGI (OVCAR-5 ovarian): > 100 µM
TGI (OVCAR-8 ovarian): > 100 µM
TGI (PC-3 prostate): > 100 µM
TGI (RPMI-8226 leukemia): 68.4 µM
TGI (RXF 393 renal): 45.8 µM
TGI (SF-268 CNS): 55.2 µM
TGI (SF-295 CNS): > 100 µM
TGI (SF-539 CNS): > 100 µM
TGI (SK-MEL-28 melanoma): > 100 µM
TGI (SK-MEL-5 melanoma): 37 µM
TGI (SK-OV-3 ovarian): > 100 µM
TGI (SN12C renal): > 100 µM
TGI (SNB-19 CNS): > 100 µM
TGI (SNB-75 CNS): 98.4 µM
TGI (SW-620 colon): > 100 µM
TGI (T-47D breast): > 100 µM
TGI (TK-10 renal): > 100 µM
TGI (U251 CNS): > 100 µM
TGI (UACC-257 melanoma): > 100 µM
TGI (UACC-62 melanoma): 75.9 µM
TGI (UO-31 renal): > 100 µM

COc1cc([C@@H]2c3cc4c(cc3C[C@H]3COC(=O)[C@@H]32)OCO4)cc2c1OCO2
TGI (786-0 renal): > 59.8 µM
TGI (A549 NSCLC): > 100 µM
TGI (ACHN renal): > 100 µM
TGI (CCRF-CEM leukemia): 97.7 µM
TGI (COLO 205 colon): 0.0149 µM
TGI (DU-145 prostate): > 100 µM
TGI (EKVX NSCLC): > 100 µM
TGI (HCC-2998 colon): < 0.01 µM
TGI (HCT-15 colon): > 100 µM
TGI (HOP-62 NSCLC): > 82 µM
TGI (HT29 colon): < 0.01 µM
TGI (IGROV1 ovarian): 0.048 µM
TGI (K-562 leukemia): > 40 µM
TGI (KM12 colon): 3.2 µM
TGI (LOX IMVI melanoma): > 68.2 µM
TGI (M14 melanoma): > 100 µM
TGI (MALME-3M melanoma): > 100 µM
TGI (MCF7 breast): > 100 µM
TGI (MDA-MB-231 breast): < 0.0224 µM
TGI (MDA-MB-435): < 0.01 µM
TGI (MDA-N): < 0.01 µM
TGI (MOLT-4 leukemia): > 100 µM
TGI (NCI-H226 lung): < 0.01 µM
TGI (NCI-H460 lung): 0.33 µM
TGI (NCI-H522 lung): > 100 µM
TGI (NCI/ADR-RES ovarian): < 0.01 µM
TGI (OVCAR-3 ovarian): < 0.01 µM
TGI (OVCAR-4 ovarian): > 100 µM
TGI (OVCAR-5 ovarian): > 100 µM
TGI (RPMI-8226 leukemia): > 100 µM
TGI (RXF 393 renal): > 100 µM
TGI (SF-268 CNS): > 100 µM
TGI (SF-295 CNS): < 0.01 µM
TGI (SF-539 CNS): < 0.01 µM
TGI (SK-MEL-2 melanoma): < 0.01 µM
TGI (SK-MEL-28 melanoma): > 100 µM
TGI (SK-MEL-5 melanoma): < 0.01 µM
TGI (SK-OV-3 ovarian): > 100 µM
TGI (SN12C renal): > 100 µM
TGI (SNB-75 CNS): > 100 µM
TGI (SR leukemia): < 0.01 µM
TGI (SW-620 colon): > 100 µM
TGI (TK-10 renal): 3.48 µM
TGI (U251 CNS): > 100 µM
TGI (UACC-62 melanoma): > 100 µM
TGI (UO-31 renal): > 100 µM

CCN1CCNc2c3cc(OC)ccc3nc3c([N+](=O)[O-])ccc1c23
TGI (786-0 renal): 9.61 µM
TGI (A549 NSCLC): > 10 µM
TGI (CAKI-1 renal): > 10 µM
TGI (CCRF-CEM leukemia): 3.22 µM
TGI (COLO 205 colon): 5.39 µM
TGI (DU-145 prostate): > 10 µM
TGI (EKVX NSCLC): 6.13 µM
TGI (HCC-2998 colon): 2.14 µM
TGI (HCT-15 colon): 4.29 µM
TGI (HL-60(TB) leukemia): 2.37 µM
TGI (HOP-62 NSCLC): 3.83 µM
TGI (HOP-92 NSCLC): 4.57 µM
TGI (HT29 colon): > 10 µM
TGI (IGROV1 ovarian): > 10 µM
TGI (K-562 leukemia): > 10 µM
TGI (KM12 colon): 3.42 µM
TGI (MALME-3M melanoma): 2.29 µM
TGI (MCF7 breast): 6.51 µM
TGI (MDA-MB-231 breast): 4.56 µM
TGI (MDA-MB-435): 2.2 µM
TGI (MDA-N): 2.1 µM
TGI (MOLT-4 leukemia): 1.34 µM
TGI (NCI-H23 lung): 5.46 µM
TGI (OVCAR-4 ovarian): 4.33 µM
TGI (OVCAR-8 ovarian): > 10 µM
TGI (RPMI-8226 leukemia): 3.25 µM
TGI (RXF 393 renal): 2.01 µM
TGI (SF-268 CNS): > 10 µM
TGI (SF-295 CNS): 5.55 µM
TGI (SK-MEL-28 melanoma): 5.93 µM
TGI (SK-MEL-5 melanoma): 2.53 µM
TGI (SK-OV-3 ovarian): > 10 µM
TGI (SN12C renal): 5.74 µM
TGI (SNB-75 CNS): 4.38 µM
TGI (SR leukemia): 1.16 µM
TGI (SW-620 colon): > 10 µM
TGI (T-47D breast): > 10 µM
TGI (TK-10 renal): > 10 µM
TGI (UACC-257 melanoma): 3.7 µM
TGI (UACC-62 melanoma): 4.58 µM
